Source: patent US20220002307A1, “FGFR4 INHIBITOR AND USE THEREOF” (BETTA PHARMACEUTICALS CO., LTD, priority 2018, published 2022)

What was measured:
[1] = target: FGFR1 (Homo sapiens, UniProt P11362); assay: Kinase assay (mobility shift assay), FGFR1; format: biochemical; conditions: compound and enzyme incubated for 60 mins
Protocol: [The source words this procedure for another target and reports this target under the same test.] (§1) The effect of the compounds of the present invention on the activity of tyrosine kinase FGFR4 was evaluated with in vitro kinase detection experiment. The mobility shift assay was used in the experiment, and a fluorescently labeled polypeptide was used as the substrate, the substrate was transformed into a product under the action of the enzyme in the reaction system, and its charge has also changed accordingly. This method can use the difference between the charge of the substrate and the product to separate them, and then detect them separately.
(§2) DMSO solution of compound (300 μM) was diluted to a 100-fold final concentration of DMSO solution in a 384-well plate, 3-fold dilution, 250 nL of the compound with 100-fold final concentration was transferred to the target plate OptiPlate-384F by a dispenser Echo 550. The final concentration of the compound were 3000 nM, 1000 nM, 333.3 nM, 111.1 nM, 37.04 nM, 12.35 nM, 4.115 nM, 1.372 nM, 0.4572 nM, 0.1524 nM, the compound and the enzyme were incubated for 60 mins,
(§3) Prepared 1× kinase buffer, used the 1× kinase buffer to prepare 2.5 fold final concentration of kinase solution, 10 μL of 2.5 fold final concentration kinase solution was added to the compound well and the positive control well respectively, and 10 μL of 1× kinase buffer was added to the negative control well. After centrifugation, the reaction plate was shaken and mixed and incubated at room temperature for 60 mins, a mixture of 25/15 fold final concentration of adenosine triphosphate (ATP) and kinase substrate 22 was prepared with 1× kinase buffer. 15 μL of 25/15 fold final concentration of ATP and substrate mixed solution was added to start the reaction, 384-well plate was centrifuged, mixed, and then incubated at room temperature for 30 minutes, 30 μL of the stop detection solution was added to stop the kinase reaction, and the conversion rate was readed with Caliper EZ Reader after centrifugation and mixing;
(§4) wherein: Conversion %_sample was the conversion rate of the sample; Conversion %_min was the average value of the negative control well, which represent the conversion rate of the well without enzyme activity, Conversion %_max was the average value of the positive control well, which represent the conversion rate of the well without compound inhibition.
(§5) Take the log value of the concentration as the X axis, the percentage inhibition rate as the Y axis, and use GraphPad Prism's log(inhibitor) vs. response-Variable slope (four parameters) of the analysis software to fit the dose-response curve to obtain the IC50 value of each compound on the enzyme. The formula is as follows: Y=Bottom+(Top−Bottom)/(1+10^((Log IC50−X)*HillSlope)).

[2] = target: tyrosine kinase FGFR4 (Homo sapiens, UniProt P22455); assay: Kinase assay (mobility shift assay), FGFR4; format: biochemical; conditions: compound and enzyme incubated for 60 mins
Protocol: as §1, §2, §3, §4, §5

[3] = system: human liver cancer cells Hep3B cells; assay: Cell proliferation assay (CellTiter-Glo); format: cell-based; conditions: 96 hrs incubation, CTG detection, read-out: IC50(nM) of the compound on Hep3B cells
From the text: In vitro cell assay was used to measure the effects of the compound of the present invention on the proliferation of human liver cancer cells Hep3B cells. The CELL TITER-GLO (CTG) luminescent was used as detection method in the assay, which can detect the number of living cells by quantitatively determining ATP. Because ATP participates in a variety of enzymatic reactions in organisms, it is an indicator of the metabolism of living cells, and its content directly reflects the number and cell state of cells, during the experiment, add CellTiter-Glo™ reagent to the cell culture medium to measure the luminescence, the luminescence value is directly proportional to the amount of ATP, and ATP is positively related to the number of living cells, so cell viability can be inspected by detecting the ATP content.
Take a bottle of Hep3B cells in logarithmic growth phase, the cells were counted after digestion and resuspension, and then were adjusted the cell density and seeded at 180 μL per well (1500 cells/well) into a 96-well plate, the plate was incubated for 24 hrs in 37° C. 5% CO2 incubator;
The 600 μM test substance dissolved in DMSO was diluted with DMSO in a 1:3 ratio to a 200-fold final concentration solution, then the cell culture medium was diluted 20 fold (10×), and 20 μL of the compound solution was added to the 96 wells containing cells in the plate, the final concentration of the compound from high to low was 3000 nM, 1000 nM, 333.3 nM, 111.1 nM, 37.04 nM, 12.35 nM, 4.115 nM, 1.372 nM, 0.4572 nM, and the well plate was placed in a 37° C. 5% CO2 incubator for 96 hrs;
After 96 hrs of incubation, 60 μL of CellTiter-Glo® Luminescent Cell Viability Assay solution was added to each well, gently shaked for 2 mins, continued incubating for 10 mins at room temperature, and the luminescence value of each well on the multifunctional microplate reader was readed.
Calculated the inhibition rate base on the luminous value,
Inhibition rate %=(blank group value−administration group value)/(blank group value−apoptosis group value)*100
The log value of the concentration was used as the X axis, and the percentage inhibition rate was used as the Y axis. Log (inhibitor) vs. response-Variable slope (four parameters) of GraphPad Prism's was used to fit the dose-response curve, and the IC50 of the compound to inhibit cell proliferation was calculated.

[4] = system: human hepatocarcinoma cells Hep3B; assay: Xenograft tumor model; format: in vivo; conditions: for inhibitory rate on tumor volume growth of Hep3B (TGI): BID×14; for inhibitory rate of tumor weight growth (TGI): BID×14, tumor weight after the last dose; for body weight (routine determination of toxicity): during the entire experiment, at the treatment doses
Protocol: BALB/c nu/nu female mice were inoculated subcutaneously in the right anterior scapula of 5×10^6 human hepatocarcinoma cells Hep3B, and the volume ratio of cell suspension to matrigel was 1:1 (0.2/mL/mouse). The mice were grouped according to tumor size until the average tumor volume was 158 mm^3. The treatment group was given a test compound solution prepared with an appropriate solvent, and the solvent control group was given a blank solvent. During the treatment, the tumor volume was measured twice a week, and the tumor weight was measured after the last dose to determine the compound activity. The tumor growth inhibition rate (%, TGI) was calculated by comparing the tumor volume and weight of the treatment group and the solvent control group. Body weight measurement, as a routine determination of toxicity, has the same frequency as the tumor volume measurement.

Chain of tyrosine kinase FGFR4 (P22455 22-802): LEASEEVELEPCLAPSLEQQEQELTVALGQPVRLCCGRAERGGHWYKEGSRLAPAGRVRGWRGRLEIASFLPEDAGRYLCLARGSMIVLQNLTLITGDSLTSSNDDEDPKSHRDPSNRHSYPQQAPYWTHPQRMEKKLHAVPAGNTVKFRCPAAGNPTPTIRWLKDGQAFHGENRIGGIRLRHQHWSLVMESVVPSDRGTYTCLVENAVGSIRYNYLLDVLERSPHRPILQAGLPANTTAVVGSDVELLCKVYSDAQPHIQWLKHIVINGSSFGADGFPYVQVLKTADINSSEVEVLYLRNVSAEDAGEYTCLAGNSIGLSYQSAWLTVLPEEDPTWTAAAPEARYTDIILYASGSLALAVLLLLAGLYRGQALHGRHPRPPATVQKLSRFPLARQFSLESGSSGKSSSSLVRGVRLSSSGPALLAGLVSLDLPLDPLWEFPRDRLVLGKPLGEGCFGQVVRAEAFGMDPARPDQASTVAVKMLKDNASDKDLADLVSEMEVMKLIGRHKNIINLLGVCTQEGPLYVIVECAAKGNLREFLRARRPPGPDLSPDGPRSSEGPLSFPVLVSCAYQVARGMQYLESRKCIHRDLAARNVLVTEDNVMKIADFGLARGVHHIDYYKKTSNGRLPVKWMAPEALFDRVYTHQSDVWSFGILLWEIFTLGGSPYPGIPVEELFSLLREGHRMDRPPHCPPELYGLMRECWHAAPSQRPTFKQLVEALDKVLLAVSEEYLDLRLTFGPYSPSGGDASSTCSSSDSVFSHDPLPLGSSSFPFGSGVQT
Chain of FGFR1 (P11362 22-822): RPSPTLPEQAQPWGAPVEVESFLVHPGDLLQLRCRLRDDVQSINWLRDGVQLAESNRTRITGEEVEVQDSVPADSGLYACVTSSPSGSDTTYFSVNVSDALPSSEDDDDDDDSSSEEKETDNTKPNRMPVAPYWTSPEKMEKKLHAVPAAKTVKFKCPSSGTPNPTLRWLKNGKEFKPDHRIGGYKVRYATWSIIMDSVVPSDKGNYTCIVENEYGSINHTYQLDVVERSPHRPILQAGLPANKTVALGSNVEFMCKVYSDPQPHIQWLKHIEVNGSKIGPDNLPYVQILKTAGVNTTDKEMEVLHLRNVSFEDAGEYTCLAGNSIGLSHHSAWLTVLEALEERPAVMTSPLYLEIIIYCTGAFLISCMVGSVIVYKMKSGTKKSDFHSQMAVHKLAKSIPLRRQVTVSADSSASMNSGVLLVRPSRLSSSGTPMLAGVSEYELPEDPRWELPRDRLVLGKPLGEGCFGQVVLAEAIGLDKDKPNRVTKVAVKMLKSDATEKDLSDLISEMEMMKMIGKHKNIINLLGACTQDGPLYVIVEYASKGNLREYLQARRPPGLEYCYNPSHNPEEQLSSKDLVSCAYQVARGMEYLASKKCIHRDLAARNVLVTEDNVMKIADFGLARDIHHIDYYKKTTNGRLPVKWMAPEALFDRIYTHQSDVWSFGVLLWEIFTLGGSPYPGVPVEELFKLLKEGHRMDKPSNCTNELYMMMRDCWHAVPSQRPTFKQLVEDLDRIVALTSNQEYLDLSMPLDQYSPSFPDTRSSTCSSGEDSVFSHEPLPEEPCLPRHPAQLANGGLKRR

Compound	IC50 [1] [nM]	IC50 [2] [nM]	IC50 [3] [nM]	further results
C=CC(=O)N[C@H]1CCOC[C@H]1Nc1ncc2c(n1)-c1cc(C)cnc1N(c1cc(OC)cc(OC)c1Cl)C2 [Compound 14, N-((3S,4S)-3-((6-(2-chloro-3,5-dimethoxyphenyl)-9-methyl-5,6-dihydropyrimido[5,4-c][1,8]naphthyridin-2-yl)amino)tetrahydro-2H-pyran-4-yl)acrylamide]	1440	2.6	18.7	
C=CC(=O)N[C@H]1CCOC[C@H]1Nc1ncc2c(n1)-c1cc(C(F)(F)F)cnc1N(c1c(Cl)c(OC)cc(OC)c1Cl)C2 [Compound 16, N-((3S,4S)-3-((6-(2,6-dichloro-3,5-dimethoxyphenyl)-9-(trifluoromethyl)-5,6-dihydropyrimido[5,4-c][1,8]naphthyridin-2-yl)amino)tetrahydro-2H-pyran-4-yl)acrylamide]	166	3.6	14.5	inhibitory rate on tumor volume growth of Hep3B (TGI) ([4]; 50 mg/kg): 78.37%; inhibitory rate of tumor weight growth (TGI) ([4]; 50 mg/kg): 83.85%; body weight (routine determination of toxicity) [4]: did not show obvious weight losses
C=CC(=O)N[C@H]1CCOC[C@H]1Nc1ncc2c(n1)-c1cc(Cl)cnc1N(c1c(Cl)c(OC)cc(OC)c1Cl)C2 [Compound 28, N-((3S,4S)-3-((9-chloro-6-(2,6-dichloro-3,5-dimethoxyphenyl)-5,6-dihydropyrimido[5,4-c][1,8]naphthyridin-2-yl)amino)tetrahydro-2H-pyran-4-yl)acrylamide]	741	1.8	9.9	
C=CC(=O)Nc1cc(N2CCC(N3CCOCC3)CC2)ccc1Nc1ncc2c(n1)-c1cccnc1N(c1c(Cl)c(OC)cc(OC)c1Cl)C2 [Compound 1, N-(2-((6-(2,6-dichloro-3,5-dimethoxyphenyl)-5,6-dihydropyrimido[5,4-c][1,8]naphthyridin-2-yl)amino)-5-(4-morpholinopiperidin-1-yl)phenyl)acrylamide]		9.4	6.9	
C=CC(=O)N[C@H]1CCOC[C@H]1Nc1ncc2c(n1)-c1cccnc1N(c1c(Cl)c(OC)cc(OC)c1Cl)C2 [Compound 2, N-((3S,4S)-3-((6-(2,6-dichloro-3,5-dimethoxyphenyl)-5,6-dihydropyrimido[5,4-c][1,8]naphthyridin-2-yl)amino)tetrahydro-2H-pyran-4-yl)acrylamide]	912	10		
C=CC(=O)NC1CCOCC1Nc1ncc2c(=O)n(-c3c(Cl)c(OC)cc(OC)c3Cl)c3ncc(Cl)cc3c2n1 (stereo not shown) [Compound 34, N-(3-((9-chloro-6-(2,6-dichloro-3,5-dimethoxyphenyl)-5-oxo-5,6-dihydropyrimido[5,4-c][1,8]naphthyridin-2-yl)amino)tetrahydro-2H-pyran-4-yl)acrylamide]			1030	
C=CC(=O)N[C@H]1CCOC[C@H]1Nc1ncc2cc(-c3c(Cl)c(OC)cc(OC)c3Cl)c3nncn3c2n1 [Compound 33, N-((3S,4S)-3-((6-(2,6-dichloro-3,5-dimethoxyphenyl)-[1,2,4]triazolo[4′,3′:1,6]pyrido[2,3-d]pyrimidin-2-yl)amino)tetrahydro-2H-pyran-4-yl)acrylamide]			524	
C=CC(=O)N[C@H]1CCOC[C@H]1Nc1ncc2c(=O)n(-c3c(Cl)c(OC)cc(OC)c3Cl)c3ncccc3c2n1 [Compound 3, N-((3S,4S)-3-((6-(2,6-dichloro-3,5-dimethoxyphenyl)-5-oxo-5,6-dihydropyrimido[5,4-c][1,8]naphthyridin-2-yl)amino)tetrahydro-2H-pyran-4-yl)acrylamide]			> 3000	
C=CC(=O)N[C@H]1CCOC[C@H]1Nc1ncc2c(n1)-c1cc(F)cnc1N(c1c(Cl)c(OC)cc(OC)c1Cl)C2 [Compound 11, N-((3S,4S)-3-((6-(2,6-dichloro-3,5-dimethoxyphenyl)-9-fluoro-5,6-dihydropyrimido[5,4-c][1,8]naphthyridin-2-yl)amino)tetrahydro-2H-pyran-4-yl)acrylamide]	1530	1.8	10.6	
C=CC(=O)N[C@H]1CCOC[C@H]1Nc1ncc2c(n1)-c1ccc(C)nc1N(c1c(Cl)c(OC)cc(OC)c1Cl)C2 [Compound 15, N-((3S,4S)-3-((6-(2,6-dichloro-3,5-dimethoxyphenyl)-8-methyl-5,6-dihydropyrimido[5,4-c][1,8]naphthyridin-2-yl)amino)tetrahydro-2H-pyran-4-yl)acrylamide]	1000	5.2		
C=CC(=O)N[C@H]1CCOC[C@H]1Nc1ncc2cc(-c3c(Cl)c(OC)cc(OC)c3Cl)ccc2n1 [BLU554, reference compound]	1480	13	62.7	
C=CC(=O)N[C@H]1CCOC[C@H]1Nc1ncc2c(n1)-c1cc(C)cnc1N(c1c(Cl)c(OC)cc(OC)c1Cl)C2 [Compound 13, N-((3S,4S)-3-((6-(2,6-dichloro-3,5-dimethoxyphenyl)-9-methyl-5,6-dihydropyrimido[5,4-c][1,8]naphthyridin-2-yl)amino)tetrahydro-2H-pyran-4-yl)acrylamide]	367	1	5.1	inhibitory rate on tumor volume growth of Hep3B (TGI) ([4]; 50 mg/kg): 73.02%; inhibitory rate of tumor weight growth (TGI) ([4]; 50 mg/kg): 84.76%; inhibitory rate on tumor volume growth of Hep3B (TGI) ([4]; 100 mg/kg): 86.26%; inhibitory rate of tumor weight growth (TGI) ([4]; 100 mg/kg): 92.27%; inhibitory rate on tumor volume growth of Hep3B (TGI) ([4]; 200 mg/kg): 90.26%; inhibitory rate of tumor weight growth (TGI) ([4]; 200 mg/kg): 98.15%; body weight (routine determination of toxicity) [4]: did not show obvious weight losses
